Measured values from US10722491B2, “Phenol compound and combination of same with a benzodiazepine fused to 1,4-dihydropyridine for treating diseases of the central nervous and vascular systems” (UNIVERSIDAD DE LA HABANA, priority 2016, dated 2020).

Experiments:
[1] = KM-34 capacity to reduce DPPH radicals; type: biochemical; conditions: DPPH 100 μM, 30 minutes of reaction; read-out: IC50, reduction of DPPH radicals
Protocol: FIG. 1. Percentage reduction of DPPH (100 μM) by KM-34 (5-400 μM) was determined by changing in the absorbance at 550 nm from a target containing only DPPH and vehicle (zero concentration of KM −34 or AA), after 30 minutes of reaction. Values are expressed as the mean ± SD (n=3). *P<0.05 with respect to the vehicle.
One of the most commonly used methods to estimate antioxidant activity is to evaluate the ability of different compounds to reduce DPPH radicals, which can be determined spectrophotometrically (Brand-Williams et al., 1995). […] Electron delocalization causes the intense violet coloration of the DPPH radical form when it is prepared in ethanol solution (Molyneux et al., 2004).
The IC 50 value obtained for KM was approximately 2.4 times lower than that obtained for ascorbic acid (AA) used as the reference compound.

[2] = system: transient occlusion of the common carotid arteries; test: Vascular dementia model (transient occlusion of common carotid arteries), Morris maze; type: in vivo, male Swiss albino mice; conditions: JM-20 4 mg/kg p.o., 1 hour after reperfusion and all days of the test; vs animals without treatment
Protocol: As a model of vascular dementia, the animals (male Swiss albino mice) underwent transient occlusion of the common carotid arteries for 20 minutes and cognitive impairment was evaluated through the Morris labyrinthine assay. […] As a model of permanent cortical ischemia, thermo-coagulation of the pials arteries was induced and the percentage of asymmetry was quantified.

IC50 [1] | SMILES | Escape latency time, Morris maze [2]
38.7 µM | O=C1O[C@H]([C@@H](O)CO)C(O)=C1O [AA, ascorbic acid, reference compound] | 
 | CCOC(=O)C1=C(C)NC2=C(C=Nc3ccccc3N2)C1c1ccccc1[N+](=O)[O-] (centres unmarked) [JM-20, 3-ethoxycarbonyl-2-methyl-4-(2-nitrophenyl)-4,11-dihydro-1H-pyrido[2,3-b][1,5]benzodiazepine] | significantly (p<0.05)
